Experiments:
[1] = target: T1, ATP-dependent translocase ABCB1 (Homo sapiens, UniProt P08183); experiment: Fraction of high affinity at binding site of human P-Glycoprotein (P-gp) in two-affinity model
[2] = target: T1, ATP-dependent translocase ABCB1; experiment: High affinity constant at binding site of human P-Glycoprotein (P-gp) in two-affinity model
[3] = target: T1, ATP-dependent translocase ABCB1; experiment: Concentration required for 50% inhibition at binding site of human P-Glycoprotein (P-gp) in one-affinity model

T1 sequence (P08183 whole entry): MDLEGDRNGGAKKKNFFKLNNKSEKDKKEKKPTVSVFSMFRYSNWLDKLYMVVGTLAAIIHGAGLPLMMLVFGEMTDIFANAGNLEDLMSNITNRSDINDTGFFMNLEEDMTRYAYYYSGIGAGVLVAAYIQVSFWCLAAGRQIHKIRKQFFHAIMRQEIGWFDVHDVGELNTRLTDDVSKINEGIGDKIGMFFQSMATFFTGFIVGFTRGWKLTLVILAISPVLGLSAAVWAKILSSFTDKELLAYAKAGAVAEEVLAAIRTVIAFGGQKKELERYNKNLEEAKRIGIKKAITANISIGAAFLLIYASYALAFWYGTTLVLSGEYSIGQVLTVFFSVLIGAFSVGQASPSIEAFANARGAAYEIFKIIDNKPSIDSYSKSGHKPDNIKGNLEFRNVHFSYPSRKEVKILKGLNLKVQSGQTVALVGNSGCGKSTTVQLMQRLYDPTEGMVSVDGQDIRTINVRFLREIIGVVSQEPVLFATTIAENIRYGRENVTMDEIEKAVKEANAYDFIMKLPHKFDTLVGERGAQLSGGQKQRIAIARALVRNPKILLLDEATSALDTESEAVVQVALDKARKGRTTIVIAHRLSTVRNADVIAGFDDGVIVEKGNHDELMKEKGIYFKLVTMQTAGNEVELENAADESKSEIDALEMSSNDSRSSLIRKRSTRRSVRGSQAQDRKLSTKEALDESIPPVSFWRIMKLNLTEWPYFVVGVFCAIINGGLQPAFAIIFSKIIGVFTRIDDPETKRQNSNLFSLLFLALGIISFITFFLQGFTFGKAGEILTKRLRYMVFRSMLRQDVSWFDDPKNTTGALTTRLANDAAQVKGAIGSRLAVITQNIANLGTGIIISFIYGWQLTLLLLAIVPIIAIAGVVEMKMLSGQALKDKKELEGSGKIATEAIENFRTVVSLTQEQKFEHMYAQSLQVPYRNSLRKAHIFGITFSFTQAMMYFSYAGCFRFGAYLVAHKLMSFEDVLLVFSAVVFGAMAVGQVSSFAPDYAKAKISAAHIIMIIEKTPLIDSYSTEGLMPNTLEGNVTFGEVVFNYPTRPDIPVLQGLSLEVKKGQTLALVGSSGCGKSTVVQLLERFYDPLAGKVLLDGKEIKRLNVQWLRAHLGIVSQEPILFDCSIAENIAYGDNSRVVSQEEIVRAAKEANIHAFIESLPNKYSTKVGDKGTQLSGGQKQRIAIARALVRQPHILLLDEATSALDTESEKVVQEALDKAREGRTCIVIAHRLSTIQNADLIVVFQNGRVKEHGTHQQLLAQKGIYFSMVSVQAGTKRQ

| Binding site fraction [1] | Ki [2] [µM] | IC50 [3] [µM] | Structure (SMILES) |
| --- | --- | --- | --- |
| 0.7 | 0.1 | 0.5 | COC(=O)c1ccccc1-c1c2ccc(=N)cc-2oc2cc(N)ccc12 |
| – | – | 4.24 | COc1ccc(CCNCCCC(C#N)(c2ccc(OC)c(OC)c2)C(C)C)cc1OC (racemic) [NORVERAPAMIL] |
| – | – | 89 | COc1ccc2[nH]c([S+]([O-])Cc3ncc(C)c(OC)c3C)nc2c1 (stereo in doubt; form 1) [OMEPRAZOLE] |
| – | – | 97.2 | COc1ccc2[nH]c([S+]([O-])Cc3ncc(C)c(OC)c3C)nc2c1 (stereo in doubt; form 2) [OMEPRAZOLE] |
| – | – | 91.2 | COc1ccc2[nH]c([S+]([O-])Cc3ncc(C)c(OC)c3C)nc2c1 (stereo in doubt; form 3) [OMEPRAZOLE] |
| 0.8 | – | – | CN(C)CCCN1c2ccccc2Sc2ccc(Cl)cc21 [CHLORPROMAZINE] |
| 0.3 | – | – | O=C(CCCN1CCC(O)(c2ccc(Cl)cc2)CC1)c1ccc(F)cc1 [HALOPERIDOL] |
| 0.2 | – | – | COCCc1ccc(OCC(O)CNC(C)C)cc1 (stereo not given) [METOPROLOL] |
| 0.2 | – | – | CC(C)NCC(O)COc1ccc(CCNC(=O)NC(C)C)cc1 (stereo not given) [PAFENOLOL] |
| 0.5 | – | – | CC(C)NCC(O)COc1cccc2ccccc12 (stereo not given) [PROPRANOLOL] |
| 0.2 | – | – | C=C[C@H]1C[N@@]2CC[C@H]1C[C@@H]2[C@@H](O)c1ccnc2ccc(OC)cc12 [QUINIDINE] |
| 0.2 | – | – | C=C[C@H]1C[N@@]2CC[C@H]1C[C@H]2[C@H](O)c1ccnc2ccc(OC)cc12 [QUININE] |
| 0.4 | – | – | CC[C@]1(O)C[C@@H]2CN(CCc3c([nH]c4ccccc34)[C@@](C(=O)OC)(c3cc4c(cc3OC)N(C)[C@H]3[C@@](O)(C(=O)OC)[C@H](OC(C)=O)[C@]5(CC)C=CCN6CC[C@]43[C@@H]65)C2)C1 [VINBLASTINE] |
